Reference: patent US11370847B2, “Single domain antibodies directed against intracellular antigens” (Singh Biotechnology, LLC, priority 2014, dated 2022)
Values joined by “and” are separate entries in the source; they are usually repeats but may differ in a detail not shown here. Identical values can stand only once. Like-named read-outs stand apart in the source and are kept apart here.

Key:
MCF-7 xenograft = conditions: for Caliper Measurement W / Caliper Measurement L / Tumor Volume TV: individual animals; for Caliper Measurement W / Caliper Measurement L / Tumor Volume TV / Tumor Volume TV, group Mean: VHH13 1 mg/kg ip tid × 14
MDA-MB-231 xenograft = conditions: for Individual Tumor Measurements: listed as anti-STAT3 bacterial VHH13
[1] = Group 2, 1 mg/kg ip tid × 14 first Day 2 doses
[2] = Group 2, 1 mg/kg IP BID×14, day 20 (6/23/15)
[3] = Group 2, 1 mg/kg IP BID×14, day 23 (6/26/15)
[4] = Group 2, 1 mg/kg IP BID×14, day 26 (6/29/15)
[5] = Group 2, 1 mg/kg IP BID×14, day 29 (7/2/15)
[6] = Group 2, 1 mg/kg IP BID×14, day 33 (7/6/15)
[7] = Group 2, 1 mg/kg IP BID×14, day 36 (7/9/15)
[8] = Group 2, 1 mg/kg IP BID×14, day 42 (7/15/15)
[9] = Group 3, 2 mg/kg IP BID×14, day 20 (6/23/15)
[10] = Group 3, 2 mg/kg IP BID×14, day 23 (6/26/15)

## anti-STAT3 VHH13: anti-STAT3 single-domain antibody, SEQ ID NO:3; bacterially produced, referred to as SBT-100
MCF-7 xenograft; 1 mg/kg ip tid x 14, control group 25 days
  time for the group to reach a tumor volume of 1000 mm^3: 36 days
MCF-7 xenograft; Day 1
  Caliper Measurement W: 6 mm
MCF-7 xenograft; Day 1, 1 mg/kg
  Caliper Measurement L: 6 mm (2×) and 7 mm (2×)
MCF-7 xenograft; Day 4 (Jul. 30, 2015), 1 mg/kg
  Tumor Volume TV: 196 mm^3 and 126 mm^3 and 144 mm^3
MCF-7 xenograft; Day 4, 1 mg/kg
  Caliper Measurement L: 8 mm (2×) and 7 mm
  Caliper Measurement W: 7 mm and 6 mm (2×)
MCF-7 xenograft; Day 8, 1 mg/kg
  Caliper Measurement L: 8 mm
  Caliper Measurement W: 7 mm
MCF-7 xenograft; Day 11, 1 mg/kg
  Caliper Measurement L: 8 mm
  Caliper Measurement W: 9 mm and 7 mm
MCF-7 xenograft; Day 15
  Tumor Volume TV, group Mean: 346.5 mm^3
MCF-7 xenograft; Day 15, 1 mg/kg
  Caliper Measurement L: 9 mm
  Caliper Measurement W: 9 mm
  Tumor Volume TV: 405 mm^3 and 288 mm^3
MCF-7 xenograft; Day 18, 1 mg/kg
  Caliper Measurement L: 9 mm
  Caliper Measurement W: 9 mm
MCF-7 xenograft; Day 22, 1 mg/kg
  Caliper Measurement L: 11 mm
  Caliper Measurement W: 9 mm
MCF-7 xenograft; Day 25, 1 mg/kg
  Caliper Measurement L: 12 mm
  Caliper Measurement W: 12 mm and 9 mm
MCF-7 xenograft; Day 29, 1 mg/kg
  Caliper Measurement L: 13 mm
  Caliper Measurement W: 13 mm
MCF-7 xenograft; Day 32
  Tumor Volume TV, group Mean: 500 mm^3
  Tumor Volume TV: 500 mm^3
MCF-7 xenograft; Day 36
  Caliper Measurement L: 12 mm
  Caliper Measurement W: 12 mm
MCF-7 xenograft; Day 39
  Caliper Measurement L: 13 mm
  Caliper Measurement W: 13 mm
MCF-7 xenograft; [1]
  % TGD: 42%
  T-C: 9.7
MDA-MB-231 xenograft; 500 μg/kg bw IP QD×14
  % mean tumor growth inhibition: 33.64%
  mean tumor size (±SE) on day 14 of dosing: 118.86±15.94
MDA-MB-231 xenograft; 500 μg/kg bw IP QD×14, control 44.27 days
  tumor doubling time: 61.06 days
MDA-MB-231 xenograft; [2]
  % Inhibition Mean: 10.34%
  % Inhibition Median: 18.61%
  Tumor Mean Absolute: 82.92 mm^3
  Tumor Median Absolute: 80.66 mm^3
  Individual Tumor Measurements: 73.15 mm^3 and 80.11 mm^3 and 97.22 mm^3 and 81.21 mm^3
MDA-MB-231 xenograft; [3]
  % Inhibition Mean: 52.39%
  % Inhibition Median: 43.28%
  Tumor Mean Absolute: 66.17 mm^3
  Tumor Median Absolute: 65.55 mm^3
  Individual Tumor Measurements: 54.54 mm^3 and 76.56 mm^3 and 79.99 mm^3 and 53.58 mm^3
MDA-MB-231 xenograft; [4]
  % Inhibition Mean: 60.52%
  % Inhibition Median: 50.54%
  Tumor Mean Absolute: 68.07 mm^3
  Tumor Median Absolute: 68.80 mm^3
  Individual Tumor Measurements: 59.17 mm^3 and 80.34 mm^3 and 78.44 mm^3 and 54.34 mm^3
MDA-MB-231 xenograft; [5]
  % Inhibition Mean: 65.12%
  % Inhibition Median: 61.81%
  Tumor Mean Absolute: 68.32 mm^3
  Tumor Median Absolute: 63.66 mm^3
  Individual Tumor Measurements: 57.21 mm^3 and 88.75 mm^3 and 59.90 mm^3 and 67.43 mm^3
MDA-MB-231 xenograft; [6]
  % Inhibition Mean: 69.70%
  % Inhibition Median: 72.26%
  Tumor Mean Absolute: 67.12 mm^3
  Tumor Median Absolute: 56.75 mm^3
  Individual Tumor Measurements: 56.20 mm^3 and 99.09 mm^3 and 55.90 mm^3 and 57.30 mm^3
MDA-MB-231 xenograft; [7]
  % Inhibition Mean: 78.28%
  % Inhibition Median: 79.75%
  Tumor Mean Absolute: 51.81 mm^3
  Tumor Median Absolute: 45.40 mm^3
  Individual Tumor Measurements: 37.13 mm^3 and 87.42 mm^3 and 53.66 mm^3 and 29.02 mm^3
MDA-MB-231 xenograft; [8]
  % Inhibition Mean: 78.08%
  % Inhibition Median: 76.74%
  Tumor Mean Absolute: 55.98 mm^3
  Tumor Median Absolute: 56.29 mm^3
  Individual Tumor Measurements: 39.17 mm^3 and 72.18 mm^3 and 60.35 mm^3 and 52.23 mm^3
MDA-MB-231 xenograft; Group 2: 1 mg/kg bw IP BID×14
  growth delay: 13.99 days
  mean growth inhibition: 78.3
  mean tumor size (±S.E.) at termination (day 42): 55.98±6.94
  mean tumor size (±SE) at day 14 of dosing: 67.12±10.66
MDA-MB-231 xenograft; Group 2: 1 mg/kg bw IP BID×14, (tumor stasis)
  % treatment/control: −33.75%
MDA-MB-231 xenograft; Group 2: 1 mg/kg bw IP BID×14, control 20.56 days
  tumor doubling time: 34.54 days
MDA-MB-231 xenograft; [9]
  % Inhibition Mean: 16.19%
  % Inhibition Median: 15.78%
  Tumor Mean Absolute: 77.52 mm^3
  Tumor Median Absolute: 83.46 mm^3
  Individual Tumor Measurements: 56.41 mm^3 and 84.06 mm^3 and 82.87 mm^3 and 86.73 mm^3
MDA-MB-231 xenograft; [10]
  % Inhibition Mean: 59.06%
  % Inhibition Median: 57.27%
